Measurements reported in patent publication US20120070411A1, “SUBSTITUTED NUCLEOTIDE ANALOGS” (Alios BioPharma, Inc., priority 2010, published 2012).
Positions count from the first letter of the chain named. Like-named read-outs stand apart in the source and are kept apart here.

B1: IFN-Lambda 2 (protein, UniProt Q8IZJ0 26-200, looked up)
Interferon lambda-2: VPVARLHGALPDARGCHIAQFKSLSPQELQAFKRAKDALEESLLLKDCRCHSRLFPRTWDLRQLQVRERPMALEAELALTLKVLEATADTDPALVDVLDQPLHTLHHILSQFRACIQPQPTAGPRTRGRLHHWLYRLQEAPKKESPGCLEASVTFNLFRLLTRDLNCVASGDLCV
B2: IFN-Lambda 3 (protein, UniProt Q8IZI9 22-196, looked up)
Interferon lambda-3: B1 Interferon lambda-2 with H7R, R49K, H51R, M71V, V95G, F112L, Y135H
B3: IFN-Lambda 1 (protein, UniProt Q8IU54 20-200, looked up)
Interferon lambda-1: GPVPTSKPTTTGKGCHIGRFKSLSPQELASFKKARDALEESLKLKNWSCSSPVFPGNWDLRLLQVRERPVALEAELALTLKVLEAAAGPALEDVLDQPLHTLHHILSQLQACIQPQPTAGPRPRGRLHHWLHRLQEAPKKESAGCLEASVTFNLFRLLTRDLKYVADGNLCLRTSTHPEST

Key:
[1] = system: HCV genotype 1b HCV replicon harbored in Huh7 cells; assay: Combination testing with compound A10 in HCV replicon (CalcuSyn CI and MacSynergy II synergy volume); format: cell-based; details: combination of compound A10 with the listed compound; MacSynergy II, Bliss independence; 25-100 synergistic, >100 strongly synergistic
Method: Two or more test compounds were tested in combination with each other using an HCV genotype 1b HCV replicon harbored in Huh7 cells with a stable luciferase (LUC) reporter. Cells were cultured under standard conditions in Dulbecco's modified Eagle's medium (DMEM; Mediatech Inc, Herndon, Va.) containing 10% heat-inactivated fetal bovine serum (FBS; Mediatech Inc, Herndon, Va.) 2 mM L-glutamine, and nonessential amino acids (JRH Biosciences). HCV replicon cells were plated in a 96-well plate at a density of 10^4 cells per well in DMEM with 10% FBS. […] The cells were incubated with no compound as a control, with the test compounds, or the combination of compounds for 72 h. The direct effects of the combination of the test compounds were examined using a luciferase (LUC) based reporter as determined by the Bright-Glo Luciferase Assay (Promega, Madison, Wis.). Dose-response curves were determined for individual compounds and fixed ratio combinations of two or more test compounds.
The effects of test compound combinations were evaluated by two separate methods. In the Loewe additivity model, the experimental replicon data was analyzed by using CalcuSyn (Biosoft, Ferguson, Mo.), a computer program based on the method of Chou and Talalay. The program uses the experimental data to calculate a combination index (CI) value for each experimental combination tested. A CI value of <1 indicates a synergistic effect, a CI value of 1 indicates an additive effect, and a CI value of >1 indicates an antagonistic effect.
The second method utilized for evaluating combination effects used a program called MacSynergy II. MacSynergy II software was kindly provided by Dr. M. Prichard (University of Michigan). The Prichard Model allows for a three-dimensional examination of drug interactions and a calculation of the synergy volume (units: μM^2%) generated from running the replicon assay using a checkerboard combination of two or more inhibitors. The volumes of synergy (positive volumes) or antagonism (negative volumes) represent the relative quantity of synergism or antagonism per change in the concentrations of the two drugs. Synergy and antagonism volumes are defined based on the Bliss independence model. In this model, synergy volumes of less than −25 indicate antagonistic interactions, volumes in the −25-25 range indicate additive behavior, volumes in the 25-100 range indicate synergistic behavior and volumes>100 indicate strong synergistic behavior.

[2] = system: Huh-7 cells containing the self-replicating, subgenomic HCV replicon; assay: HCV replicon assay (luciferase reporter, 72 h); format: cell-based; details: Hepatitis C virus, read-out: HCV Replicon Activity (EC50)
Method: Huh-7 cells containing the self-replicating, subgenomic HCV replicon with a stable luciferase (LUC) reporter were cultured in Dulbecco's modified Eagle's medium (DMEM) containing 2 mM L-glutamine and supplemented with 10% heat-inactivated fetal bovine serum (FBS), 1% penicillin-streptomyocin, 1% nonessential amino acids, and 0.5 mg/ml G418.
On the first day, 5,000 HCV replicon cells were plated per well in a 96-well plate. On the following day, test compounds were solubilized in 100% DMSO to 100× the desired final testing concentration. Each compound was then serially diluted (1:3) up to 9 different concentrations. Compounds in 100% DMSO are reduced to 10% DMSO by diluting 1:10 in cell culture media. The compounds were diluted to 10% DMSO with cell culture media, which were used to dose the HCV replicon cells in 96-well format. The final DMSO concentration was 1%. The HCV replicon cells were incubated at 37° C. for 72 hours. At 72 hours, cells were processed when the cells are still subconfluent. Compounds that reduce the LUC signal are determined by Bright-Glo Luciferase Assay (Promega, Madison, Wis.). % Inhibition was determined for each compound concentration in relation to the control cells (untreated HCV replicon) to calculate the EC50.

Molecule	Synergy Volume [1] [μM^2%]	EC50 ([2]; Huh-7, 72 h) [µM]	other results
CC(C)OC(=O)[C@H](C)NP(=O)(OC[C@H]1O[C@@H](n2ccc(=O)[nH]c2=O)[C@](C)(F)[C@@H]1O)Oc1ccccc1 (stereo partly drawn) [PSI-7851]	14		
CC(C)(C)C#Cc1cc(N(C(=O)[C@H]2CC[C@H](C)CC2)[C@H]2CC[C@H](O)CC2)c(C(=O)O)s1 [VX-222]	52		
C[C@@]1(F)[C@H](O)[C@@H](CO)O[C@H]1n1ccc(N)nc1=O [PSI-6130]	21		
COc1ccc2c(O[C@@H]3C[C@H]4C(=O)N[C@]5(C(=O)O)C[C@H]5/C=C\CCCCC[C@H](NC(=O)OC5CCCC5)C(=O)N4C3)cc(-c3csc(NC(C)C)n3)nc2c1 [BILN-2061]	12		
CNC(=O)c1c(-c2ccc(F)cc2)oc2cc(N(CCO)S(C)(=O)=O)c(C3CC3)cc12 [HCV-796]	35		
CC(C)(C)OC(=O)N[C@H]1CCCCC/C=C\[C@@H]2C[C@@]2(C(=O)NS(=O)(=O)C2CC2)NC(=O)[C@@H]2C[C@@H](OC(=O)N3Cc4cccc(F)c4C3)CN2C1=O [ITMN-191, DANOPREVIR]	39		
COc1ccc2c(O[C@@H]3C[C@H]4C(=O)N[C@]5(C(=O)NS(=O)(=O)C6CC6)C[C@H]5/C=C\CCCCN(C)C(=O)[C@@H]4C3)cc(-c3nc(C(C)C)cs3)nc2c1C [TMC-435]	104		
CCc1cc(CC[C@]2(C3CCCC3)CC(O)=C(Cc3nc4nc(C)cc(C)n4n3)C(=O)O2)cc(CC)n1 [Filibuvir, FILIBUVIR]	38		
CC(NP(=O)(Oc1ccccc1Cl)OC(C)C1OC(n2cnc3c(N)ncnc32)[C@H](O)[C@@H]1O)C(=O)OC1CCCCC1 (stereo partly drawn) [A28, 5′(S)—C-methyladenosine 5′-[2-chlorophenyl(cyclohexoxy-L-alaninyl)]phosphate]		< 1	
CC(C)OC(=O)[C@H](C)NP(=O)(Oc1cccc2ccccc12)O[C@@H](C)[C@H]1O[C@@H](n2cnc3c(N)ncnc32)[C@H](O)[C@@H]1O (stereo partly drawn) [A20, 5′(S)—C-methyladenosine 5′-[1-naphthyl(isopropoxy-L-alaninyl)]phosphate]		< 1	
COC(=O)[C@H](C)NP(=O)(Oc1ccccc1)O[C@@H](C)[C@H]1O[C@@H](n2ccc(=O)[nH]c2=O)[C@@H](O)[C@@H]1O (stereo partly drawn) [D2, 5′ (S)—C-methylarabinouridine 5′-[phenyl(methoxy-L-alaninyl)]phosphate]		< 1000	
COC(=O)[C@H](C)NP(=O)(Oc1ccccc1)O[C@@H](C)[C@H]1O[C@@H](n2cnc3c(N)ncnc32)[C@H](O)[C@@H]1O (stereo partly drawn) [A15, 5′(S)—C-methyladenosine 5′-[phenyl(methoxy-L-alaninyl)]phosphate]		< 30	
NC(=O)c1ncn([C@@H]2O[C@H](CO)[C@@H](O)[C@H]2O)n1 [Ribavirin, ribavirin]	0		
C[C@H](NP(=O)(Oc1cccc2ncccc12)O[C@@H](C)[C@H]1O[C@@H](n2cnc3c(N)ncnc32)[C@H](O)[C@@H]1O)C(=O)OC1CCCCC1 (stereo in doubt) [A35]		< 30	
C[C@H](OP(=O)(N[C@@H](Cc1ccccc1)C(=O)OC1CCCCC1)Oc1ccccc1)[C@H]1O[C@@H](n2cnc3c(N)ncnc32)[C@H](O)[C@@H]1O (stereo partly drawn) [A42]		< 30	
CCOc1nc(N)nc2c1ncn2[C@@H]1O[C@@H]2COP(=O)(OC(C)C)O[C@H]2[C@@]1(C)F (stereo partly drawn) [PSI-938]	36		
Fc1ccccc1-c1nc2ccn(Cc3ccc(-c4ccc(C(F)(F)F)cc4C(F)(F)F)nn3)cc-2n1 [GS-9190]	112		
CC(C)OC(=O)[C@H](C)N[P@](=O)(Oc1cccc2ccccc12)O[C@@H](C)[C@H]1O[C@@H](n2cnc3c(=O)[nH]cnc32)[C@H](O)[C@@H]1O (stereo in doubt) [B5, 5′(S)—C-methylinosine 5′-[1-naphthyl(isopropoxy-L-alaninyl)]phosphate]		< 100	
CC[C@@H](OP(=O)(N[C@@H](C)C(=O)OC(C)C)Oc1ccccc1)[C@H]1O[C@@H](n2cnc3c(N)ncnc32)[C@H](O)[C@@H]1O (stereo partly drawn) [A25, 5′(R)—C-ethyladenosine 5′-[phenyl(isopropoxy-L-alaninyl)]phosphate]		< 1000	
CC(O)[C@H]1O[C@@H](n2ccc(N)nc2=O)[C@@H](F)[C@@H]1O (stereo partly drawn)			EC50 ([2]; Table 9, Huh-7 HCV replicon cells, luciferase, 72 hours): 5 to 30 µM
CC[C@H](OP(=O)(N[C@@H](C)C(=O)OC(C)C)Oc1ccccc1)[C@H]1O[C@@H](n2cnc3c(N)ncnc32)[C@H](O)[C@@H]1O (stereo partly drawn) [A24, 5′(S)—C-ethyladenosine 5′-[phenyl(isopropoxy-L-alaninyl)]phosphate]		< 100	
CC(C)OC(=O)[C@H](C)NP(=O)(Oc1ccccc1)O[C@@H](C)[C@H]1O[C@@H](n2cnc3c(N)ncnc32)[C@@H]2OC(=O)O[C@@H]21 (stereo partly drawn) [A9, 2′,3′-carbonyl-5′(S)—C-methyladenosine 5′-[phenyl(isopropoxy-L-alaninyl)]phosphate]		< 1	
COC(=O)C(C)NP(=O)(Oc1ccccc1)OC(C)[C@H]1O[C@@H](n2ccc(=O)[nH]c2=O)C(F)(F)C1O (stereo in doubt) [D4, 2′-Deoxy-2′,2′-difluoro-5′(S)—C-methyluridine 5′-[phenyl(methoxy-L-alaninyl)]phosphate]		< 30	
COC(=O)[C@H](C)NP(=O)(Oc1ccccc1)O[C@H](C)[C@H]1O[C@@H](n2ccc(=O)[nH]c2=O)[C@@H](O)[C@@H]1O (stereo partly drawn) [D1, 5′(R)—C-methylarabinouridine 5′-[phenyl(methoxy-L-alaninyl)]phosphate]		< 1000	
COc1nc(N)nc2c1ncn2[C@@H]1O[C@H](COP(=O)(N[C@@H](C)C(=O)OCC(C)(C)C)Oc2cccc3ccccc23)[C@@H](O)[C@@]1(C)O (stereo partly drawn) [INX-189]	31		
COC(=O)N[C@H](C(=O)N1CCC[C@H]1c1nc(-c2ccc(-c3ccc(-c4c[nH]c([C@@H]5CCCN5C(=O)[C@@H](NC(=O)OC)C(C)C)n4)cc3)cc2)c[nH]1)C(C)C [BMS-790052]	25		
CCC[C@H](NC(=O)[C@@H]1[C@H]2CCC[C@H]2CN1C(=O)[C@@H](NC(=O)[C@@H](NC(=O)c1cnccn1)C1CCCCC1)C(C)(C)C)C(=O)C(=O)NC1CC1 [VX-950, Telaprevir]	34		
B1	31		
B2	33		
B3	43		
